Values quoted from earlier work as cited in PubChem BioAssay AID1259409 (Chemical Carcinogenesis Research Information System (CCRIS), 2018).
“And” between values parts separate entries of the source, which are not always exact repeats. Equal entries are not always repeated.

Tested on: rodent chemically induced tumor inhibition, incidence and multiplicity
Assay: CCRIS tumor inhibitor studies
Conditions: Species: RAT, Promoter: NONE USED
From the text: The CCRIS database contains chemical records with carcinogenicity, mutagenicity, tumor promotion, and tumor inhibition test results. It was developed by the National Cancer Institute (NCI). Data are derived from studies cited in primary journals, current awareness tools, NCI reports, and other sources. Test results have been reviewed by experts in carcinogenesis and mutagenesis.
CCRIS provides historical information from the years 1985 - 2011. It is no longer updated.
This is an archive assay for CCRIS tumor inhibitor studies.

CN1C(C(=O)Nc2ccccn2)=C(O)c2ccccc2S1(=O)=O
tumour outcome (control, treated, inhibition, significance) (Carcinogen: AZOXYMETHANE, 25843-45-2, Dose [Inhibitor]: 0, 400 PPM IN DIET BEGINNING 1 WK PRIOR TO CARCINOGEN TREATMENT FOR DURATION OF STUDY (STUDY DURATION: 54 WK), Route [Inhibitor]: ORAL, Strain/Sex: F344/MALE, Target Tissue: Type of Lesion: COLON: ADENOCARCINOMA, Dose [Carcinogen]: 15 MG/KG/BW 1/WK FOR 2 WK): 58%, 19%, 67%, p<0.01
tumour outcome (control, treated, inhibition, significance) (Carcinogen: AZOXYMETHANE, 25843-45-2, Dose [Inhibitor]: 0, 400 PPM IN DIET BEGINNING 1 WK PRIOR TO CARCINOGEN TREATMENT FOR DURATION OF STUDY (STUDY DURATION: 54 WK), Route [Inhibitor]: ORAL, Strain/Sex: F344/MALE, Target Tissue: Type of Lesion: COLON: ADENOMA, Dose [Carcinogen]: 15 MG/KG/BW 1/WK FOR 2 WK): 6%, 3%, 50%, not calculated
tumour outcome (control, treated, inhibition, significance) (Carcinogen: AZOXYMETHANE, 25843-45-2, Dose [Inhibitor]: 0, 400 PPM IN DIET BEGINNING PRIOR TO CARCINOGEN DOSE AND CONTINUING FOR DURATION OF STUDY (STUDY DURATION: 54 WK), Route [Inhibitor]: ORAL, Strain/Sex: F344/MALE, Target Tissue: Type of Lesion: COLON: ADENOCARCINOMA, Dose [Carcinogen]: 15 MG/KG 1/WK FOR 2 WK): 72%, 22%, 69%, p<0.001
tumour outcome (control, treated, inhibition, significance) (Carcinogen: AZOXYMETHANE, 25843-45-2, Dose [Inhibitor]: 0, 400 PPM IN DIET BEGINNING PRIOR TO CARCINOGEN DOSE AND CONTINUING FOR DURATION OF STUDY (STUDY DURATION: 54 WK), Route [Inhibitor]: ORAL, Strain/Sex: F344/MALE, Target Tissue: Type of Lesion: COLON: ADENOMA, Dose [Carcinogen]: 15 MG/KG 1/WK FOR 2 WK): 14%, 6%, 57%, not calculated
tumour outcome (control, treated, inhibition, significance) (Carcinogen: AZOXYMETHANE, 25843-45-2, Dose [Inhibitor]: 0, 400 PPM IN DIET BEGINNING PRIOR TO CARCINOGEN DOSE AND CONTINUING FOR DURATION OF STUDY (STUDY DURATION: 54 WK), Route [Inhibitor]: ORAL, Strain/Sex: F344/MALE, Target Tissue: Type of Lesion: SMALL INTESTINE: ADENOCARCINOMA, Dose [Carcinogen]: 15 MG/KG 1/WK FOR 2 WK): 50%, 8%, 84%, p<0.001
tumour outcome (control, treated, inhibition, significance) (Carcinogen: AZOXYMETHANE, 25843-45-2, Dose [Inhibitor]: 0, 400 PPM IN DIET BEGINNING PRIOR TO CARCINOGEN DOSE AND CONTINUING FOR DURATION OF STUDY (STUDY DURATION: 54 WK), Route [Inhibitor]: ORAL, Strain/Sex: F344/MALE, Target Tissue: Type of Lesion: SMALL INTESTINE: ADENOMA, Dose [Carcinogen]: 15 MG/KG 1/WK FOR 2 WK): 3%, 0%, 100%, not calculated
tumour outcome (control, treated, inhibition, significance) (Carcinogen: AZOXYMETHANE, 25843-45-2, Dose [Inhibitor]: 0, 400 PPM IN DIET FOR 56 WK BEGINNING 2 WK PRIOR TO CARCINOGEN TREATMENT (STUDY DURATION: 56 WK), Route [Inhibitor]: ORAL, Strain/Sex: F344/MALE, Target Tissue: Type of Lesion: COLON(DISTAL): TUMOR, Dose [Carcinogen]: 15 MG/KG 1/WK FOR 2 WK): 52%, 22%, 58%, p<0.05
tumour outcome (control, treated, inhibition, significance) (Carcinogen: AZOXYMETHANE, 25843-45-2, Dose [Inhibitor]: 0, 400 PPM IN DIET FOR 56 WK BEGINNING 2 WK PRIOR TO CARCINOGEN TREATMENT (STUDY DURATION: 56 WK), Route [Inhibitor]: ORAL, Strain/Sex: F344/MALE, Target Tissue: Type of Lesion: COLON(PROXIMAL): TUMOR, Dose [Carcinogen]: 15 MG/KG 1/WK FOR 2 WK): 38%, 7%, 82%, p<0.001
tumour outcome (control, treated, inhibition, significance) (Carcinogen: AZOXYMETHANE, 25843-45-2, Dose [Inhibitor]: 0, 400 PPM IN DIET FOR 56 WK BEGINNING 2 WK PRIOR TO CARCINOGEN TREATMENT (STUDY DURATION: 56 WK), Route [Inhibitor]: ORAL, Strain/Sex: F344/MALE, Target Tissue: Type of Lesion: SMALL INTESTINE(DISTAL): TUMOR, Dose [Carcinogen]: 15 MG/KG 1/WK FOR 2 WK): 12%, 9%, 25%, not significant
tumour outcome (control, treated, inhibition, significance) (Carcinogen: AZOXYMETHANE, 25843-45-2, Dose [Inhibitor]: 0, 400 PPM IN DIET FOR 56 WK BEGINNING 2 WK PRIOR TO CARCINOGEN TREATMENT (STUDY DURATION: 56 WK), Route [Inhibitor]: ORAL, Strain/Sex: F344/MALE, Target Tissue: Type of Lesion: SMALL INTESTINE(PROXIMAL): TUMOR, Dose [Carcinogen]: 15 MG/KG 1/WK FOR 2 WK): 33%, 9%, 73%, p<0.05
tumour outcome (control, treated, inhibition, significance) (Carcinogen: INTRARECTAL, Dose [Inhibitor]: N-METHYLNITROSOUREA, 684-93-5, Route [Inhibitor]: 0, 130 MG/KG VEGETABLE DIET (2.5 MG/D) BEGINNING 7 D POST LAST CARCINOGEN TREATMENT AND CONTINUING FOR STUDY DURATION (S, Strain/Sex: CD-1/MALE, Target Tissue: Type of Lesion: INTESTINE: TUMOR): 9/9 (100%), 5/10 (50%), 50%, not calculated
tumour outcome (control, treated, inhibition, significance) (Carcinogen: METHYLAZOXYMETHANOL, 590-96-5, Dose [Inhibitor]: 8 MG/KG BW/D IN DIET FOR 19 WK STARTING 7 D AFTER CARCINOGEN TREATMENT AND CONTINUING FOR DURATION OF STUDY (STUDY DURAT, Route [Inhibitor]: ORAL, Strain/Sex: SPRAGUE-DAWLEY/MALE, Target Tissue: Type of Lesion: INTESTINES: TUMOR, Dose [Carcinogen]: 30 MG/KG BW ONCE): 9/9 (100%), 4/10 (40%), 60%, not calculated
tumour outcome (control, treated, inhibition, significance) (Carcinogen: METHYLAZOXYMETHANOL, 590-96-5, Dose [Inhibitor]: 8.25 MG/KG BW/D IN DIET FOR 19 WK STARTING 7 D AFTER CARCINOGEN TREATMENT AND CONTINUING FOR DURATION OF STUDY (STUDY DU, Route [Inhibitor]: ORAL, Strain/Sex: SPRAGUE-DAWLEY/MALE, Target Tissue: Type of Lesion: INTESTINES: TUMOR, Dose [Carcinogen]: 30 MG/KG BW ONCE): 9/10 (90%), 2/10 (20%), 78%, not calculated and 9/10 (90%), 7/11 (64%), 29%, not calculated
tumour outcome (control, treated, inhibition, significance) (Carcinogen: METHYLAZOXYMETHANOL, 590-96-5, Dose [Inhibitor]: 12.5 MG/KG BW/D IN DIET FOR 19 WK STARTING 7 D AFTER CARCINOGEN TREATMENT AND CONTINUING FOR DURATION OF STUDY (STUDY DU, Route [Inhibitor]: ORAL, Strain/Sex: SPRAGUE-DAWLEY/MALE, Target Tissue: Type of Lesion: INTESTINES: TUMOR, Dose [Carcinogen]: 30 MG/KG BW ONCE): 8/9 (88%), 3/9 (33%), 63%, not calculated
